Measurements: patent US7951813B2, “Quinazolinone derivatives as ALDH-2 inhibitors” (Gilead Sciences, Inc., priority 2007, dated 2011)
“Also recorded” adds a separate entry of the source.

What was measured:
hALDH2 = target: T1, hALDH2 (UniProt P05091); assay: ALDH-2 assay (inhibition of hALDH2); format: biochemical, human
T1 sequence (P05091 1-517): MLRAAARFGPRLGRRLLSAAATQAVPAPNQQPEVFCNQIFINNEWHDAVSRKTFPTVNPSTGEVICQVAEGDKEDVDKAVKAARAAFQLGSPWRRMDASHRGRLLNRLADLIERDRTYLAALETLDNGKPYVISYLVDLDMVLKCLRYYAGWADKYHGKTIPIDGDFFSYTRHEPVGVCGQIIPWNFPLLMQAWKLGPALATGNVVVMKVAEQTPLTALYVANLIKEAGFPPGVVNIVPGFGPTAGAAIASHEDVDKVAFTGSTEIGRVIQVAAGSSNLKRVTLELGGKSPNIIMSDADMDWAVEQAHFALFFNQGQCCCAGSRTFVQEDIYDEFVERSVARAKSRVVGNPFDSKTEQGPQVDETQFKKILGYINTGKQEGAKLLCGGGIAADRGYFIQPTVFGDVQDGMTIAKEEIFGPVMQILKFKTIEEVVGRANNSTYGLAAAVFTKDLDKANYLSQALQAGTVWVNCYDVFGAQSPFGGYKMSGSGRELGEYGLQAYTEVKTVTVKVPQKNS

hMAO-A = target: T2, hMAO-A (UniProt P21397); assay: MAO assay (inhibition of hMAO-A); format: biochemical, human; conditions: read-out: IC50 hMAO-A (No inhibition up to 10 μM)
T2 sequence (P21397 1-527): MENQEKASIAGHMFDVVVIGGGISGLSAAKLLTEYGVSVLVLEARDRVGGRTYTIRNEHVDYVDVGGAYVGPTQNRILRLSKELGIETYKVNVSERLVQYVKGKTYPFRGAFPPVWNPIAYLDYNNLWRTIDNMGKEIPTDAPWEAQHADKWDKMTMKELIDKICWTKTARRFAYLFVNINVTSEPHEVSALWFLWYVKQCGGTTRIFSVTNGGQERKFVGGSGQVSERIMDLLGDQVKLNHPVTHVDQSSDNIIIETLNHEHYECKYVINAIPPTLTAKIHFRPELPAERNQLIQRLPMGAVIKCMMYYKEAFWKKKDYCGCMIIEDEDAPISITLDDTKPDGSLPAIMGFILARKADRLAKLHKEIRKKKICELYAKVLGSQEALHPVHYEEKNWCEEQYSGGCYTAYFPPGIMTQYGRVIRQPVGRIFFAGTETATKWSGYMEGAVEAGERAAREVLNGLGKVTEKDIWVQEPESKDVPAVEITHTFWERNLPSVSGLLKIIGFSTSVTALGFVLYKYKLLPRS

hMAO-B = target: T3, hMAO-B (Homo sapiens, UniProt P27338); assay: MAO assay (inhibition of hMAO-B); format: biochemical; conditions: read-out: IC50 hMAO-B (No inhibition up to 10 μM)
T3 sequence (P27338 2-520 limits assumed): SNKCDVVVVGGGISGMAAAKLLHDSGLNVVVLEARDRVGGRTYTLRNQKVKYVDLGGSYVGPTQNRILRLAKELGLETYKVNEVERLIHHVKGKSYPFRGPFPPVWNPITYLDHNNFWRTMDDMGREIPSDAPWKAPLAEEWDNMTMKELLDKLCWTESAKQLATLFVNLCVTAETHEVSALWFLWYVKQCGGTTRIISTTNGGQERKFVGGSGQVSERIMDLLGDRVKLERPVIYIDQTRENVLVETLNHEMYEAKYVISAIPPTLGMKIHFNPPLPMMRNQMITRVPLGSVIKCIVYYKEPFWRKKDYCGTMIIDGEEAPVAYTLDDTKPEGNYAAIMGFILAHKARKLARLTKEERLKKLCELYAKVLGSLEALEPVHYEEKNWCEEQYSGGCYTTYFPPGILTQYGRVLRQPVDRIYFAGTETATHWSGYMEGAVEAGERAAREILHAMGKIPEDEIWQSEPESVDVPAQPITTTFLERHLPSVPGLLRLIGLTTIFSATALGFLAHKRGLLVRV

Syrian golden hamsters = conditions: background statement, Keung and Vallee; U.S. Pat. Nos. 5,624,910 and 6,121,010; cited from earlier work
[1] = target: T4, human mitochondrial aldehyde dehydrogenase (ALDH-2) (Homo sapiens, UniProt P05091); conditions: background statement, U.S. Pat. Nos. 5,624,910 and 6,121,010; cited from earlier work
T4 sequence (P05091 18-517): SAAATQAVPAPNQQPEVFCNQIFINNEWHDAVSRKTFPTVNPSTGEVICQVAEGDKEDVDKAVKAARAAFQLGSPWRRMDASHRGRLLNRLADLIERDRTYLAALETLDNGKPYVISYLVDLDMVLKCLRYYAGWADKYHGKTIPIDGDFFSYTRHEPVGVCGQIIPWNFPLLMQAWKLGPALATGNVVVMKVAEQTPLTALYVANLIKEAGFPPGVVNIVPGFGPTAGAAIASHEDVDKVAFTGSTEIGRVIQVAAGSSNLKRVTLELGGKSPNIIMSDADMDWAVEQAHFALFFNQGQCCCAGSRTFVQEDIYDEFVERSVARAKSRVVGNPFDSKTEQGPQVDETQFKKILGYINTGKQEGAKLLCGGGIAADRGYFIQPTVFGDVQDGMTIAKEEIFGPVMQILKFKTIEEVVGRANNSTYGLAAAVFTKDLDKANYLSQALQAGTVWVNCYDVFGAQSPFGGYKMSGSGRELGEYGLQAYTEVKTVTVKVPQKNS

N#Cc1cccc(COc2ccc3c(=O)n(-c4ccc(O)cc4)cnc3c2)c1 [3-{[3-(4-hydroxyphenyl)-4-oxo-3-hydroquinazolin-7-yloxy]methyl} benzenecarbonitrile]
IC50 (hALDH2): 0.196 µM | IC50 (hMAO-A): > 10 µM | IC50 (hMAO-B): > 10 µM

O=c1c2ccc(OCc3noc(-c4cc(C(F)(F)F)cc(C(F)(F)F)c4)n3)cc2ncn1-c1ccc(O)cc1 [7-({5-[3,5-bis(trifluoromethyl)phenyl](1,2,4-oxadiazol-3-yl)}methoxy)-3-(4-hydroxyphenyl)-3-hydroquinazolin-4-one]
IC50 (hALDH2): 0.07 µM | IC50 (hMAO-A): > 10 µM | IC50 (hMAO-B): > 10 µM

NC(=O)c1cccc(COc2ccc3c(=O)n(-c4ccc(O)cc4)cnc3c2)c1 [3-{[3-(4-hydroxyphenyl)-4-oxo-3-hydroquinazolin-7-yloxy]methyl}benzamide]
IC50 (hALDH2): 0.021 µM | IC50 (hMAO-A): > 10 µM | IC50 (hMAO-B): > 10 µM

O=c1c(-c2ccc(O)cc2)coc2cc(O)ccc12 [daidzein]
suppression of ethanol intake (Syrian golden hamsters): effective in suppressing ethanol intake; also recorded: effective in suppressing ethanol uptake

N#Cc1cccc(-c2nc(COc3ccc4c(=O)n(-c5ccc(O)cc5)cnc4c3)no2)c1 [3-(3-{[3-(4-hydroxyphenyl)-4-oxo-3-hydroquinazolin-7-yloxy]methyl}-1,2,4-oxadiazol-5-yl)benzenecarbonitrile]
hALDH2 % inhibition (hALDH2; at 1 μM): 25% inhibition at 1 μM | IC50 (hMAO-A): > 10 µM | IC50 (hMAO-B): > 10 µM

C=CCOC(=O)c1cccc(COc2ccc3c(=O)n(-c4ccc(O)cc4)cnc3c2)c1 [Example 2A, prop-2-enyl 3-{[3-(4-hydroxyphenyl)-4-oxo-3-hydroquinazolin-7-yloxy]methyl} benzoate]
IC50 (hALDH2): 0.196 µM | IC50 (hMAO-A): > 10 µM | IC50 (hMAO-B): > 10 µM

O=c1c2ccc(OCc3noc(-c4cccc(C(F)(F)F)c4)n3)cc2ncn1-c1ccc(O)cc1 [3-(4-hydroxyphenyl)-7-({5-[3-(trifluoromethyl)phenyl](1,2,4-oxadiazol-3-yl)}methoxy)-3-hydroquinazolin-4-one]
IC50 (hALDH2): 0.03 µM | IC50 (hMAO-A): > 10 µM | IC50 (hMAO-B): > 10 µM

O=c1c(-c2ccc(O)cc2)coc2cc(O[C@@H]3O[C@H](CO)[C@@H](O)[C@H](O)[C@H]3O)ccc12 [Daidzin, daidzin]
inhibition of human mitochondrial ALDH-2 [1]: potent and selective inhibitors

COc1ccc(-c2nc(COc3ccc4c(=O)n(-c5ccc(O)cc5)cnc4c3)no2)cc1C(F)(F)F [3-(4-hydroxyphenyl)-7-({5-[4-methoxy-3-(trifluoromethyl)phenyl](1,2,4-oxadiazol-3-yl)}methoxy)-3-hydroquinazolin-4-one]
IC50 (hALDH2): 0.1 µM | IC50 (hMAO-A): > 10 µM | IC50 (hMAO-B): > 10 µM

O=c1c2ccc(OCc3noc(-c4cc(F)cc(C(F)(F)F)c4)n3)cc2ncn1-c1ccc(O)cc1 [7-({5-[5-fluoro-3-(trifluoromethyl)phenyl](1,2,4-oxadiazol-3-yl)}methoxy)-3-(4-hydroxyphenyl)-3-hydroquinazolin-4-one]
IC50 (hALDH2): 0.07 µM | IC50 (hMAO-A): > 10 µM | IC50 (hMAO-B): > 10 µM

O=c1c2ccc(OCc3noc(-c4ccccc4)n3)cc2ncn1-c1ccc(O)cc1 [3-(4-hydroxyphenyl)-7-[(5-phenyl(1,2,4-oxadiazol-3-yl))methoxy]-3-hydroquinazolin-4-one]
IC50 (hALDH2): 0.107 µM | IC50 (hMAO-A): > 10 µM | IC50 (hMAO-B): > 10 µM

O=c1c2ccc(OCc3noc(-c4cc(C(F)(F)F)ccc4C(F)(F)F)n3)cc2ncn1-c1ccc(O)cc1 [7-({5-[2,5-bis(trifluoromethyl)phenyl](1,2,4-oxadiazol-3-yl)}methoxy)-3-(4-hydroxyphenyl)-3-hydroquinazolin-4-one]
IC50 (hALDH2): 0.312 µM | IC50 (hMAO-A): > 10 µM | IC50 (hMAO-B): > 10 µM

COc1ccccc1-c1nc(COc2ccc3c(=O)n(-c4ccc(O)cc4)cnc3c2)no1 [7-({5-[2-methoxyphenyl](1,2,4-oxadiazol-3-yl)}methoxy)-3-(4-hydroxyphenyl)-3-hydroquinazolin-4-one]
IC50 (hALDH2): 0.09 µM | IC50 (hMAO-A): > 10 µM | IC50 (hMAO-B): > 10 µM

CC(C)OC(=O)c1cccc(COc2ccc3c(=O)n(-c4ccc(O)cc4)cnc3c2)c1 [methylethyl 3-{[3-(4-hydroxyphenyl)-4-oxo-3-hydroquinazolin-7-yloxy]methyl} benzoate]
IC50 (hALDH2): 0.095 µM | IC50 (hMAO-A): > 10 µM | IC50 (hMAO-B): > 10 µM

O=C(O)c1cccc(COc2ccc3c(=O)n(-c4ccc(O)cc4)cnc3c2)c1 [Example 3A, 3-{[3-(4-hydroxyphenyl)-4-oxo-3-hydroquinazolin-7-yloxy]methyl}benzoic acid]
IC50 (hALDH2): 0.136 µM | IC50 (hMAO-A): > 10 µM | IC50 (hMAO-B): > 10 µM
